Source: US11793782B2, “Therapeutic agents for neurodegenerative diseases” (priority 2017, dated 2023)
Values joined by “and” are separate entries in the source; they are usually repeats but may differ in a detail not shown here. Equal values may be shown once.

How the values were obtained:
ALS patients = assay: Case studies, amyotrophic lateral sclerosis (ALS) patients; format: in vivo, human
Excerpt: The results were documented by video.

[1] = tested on: Mucolipidosis Type II (MLII) patient fibroblasts; assay: Lysosomal volume via LysoTracker, MLII fibroblasts; format: cell-based, human; details: 1 mM, 6 days
NPC patients = assay: Clinical severity score (CSS) and annual severity increment score (ASIS) in NPC patients; format: in vivo, human; parameters: key to CSS overall / CSS eye movement / CSS ambulation / CSS speech / CSS swallow / CSS fine motor skills / CSS cognition / CSS memory / CSS seizures: NPC clinical severity score; higher score = greater severity; details: for CSS overall / CSS ambulation / CSS cognition / CSS eye movement / CSS fine motor skills / CSS memory / CSS seizures / CSS speech / CSS swallow / ASIS overall: NPC patients; for ASIS overall: CSS divided by age
Excerpt: Progression of a neurodegenerative disease over time or through treatment can be monitored, for example, using one or more known tests at two or more time points and comparing the results. Disease progression and/or severity can be assessed, for example, using the Scale for the Assessment and Rating of Ataxia (SARA), Spinocerebellar Ataxia Functional Index (SCAFI), the International Cooperative Ataxia Rating Scale (ICARS), the brief ataxia rating scale (BARS), the modified Disability Rating Scale (mDRS), EuroQol 5Q-5D-5L (EQ-5D-5L), the visual analogue scale (VAS), neuropsychological tests, such as Wechsler Adult Intelligence Scale-Revised (WAIS-R), Wechsler Intelligence Scale for Children-IV (WISC-IV), Montreal Cognitive Assessment (MoCA), as well as scales used in movement disorders, such as the Unified Parkinson's Rating Scale (UPRS) or the Unified Multiple System Atrophy Rating Scale (UMSARS), or other suitable tests. For certain LSDs, such as NPC, particular scores have been developed and validated over the last decades, for instance the clinical severity score (CSS) and annual severity increment score (ASIS) (see Yanjanin et al., “Linear Clinical Progression, Independent of Age of Onset, in Niemann-Pick Disease, Type C,” Am J Med Genet Part B 153B:132-140) and the modified 6-Domain NP-C disability Scale (mDRS score). For example, an NPC patient's severity can be quantified by assigning a CSS, which assesses various parameters of the disease (ambulation, seizures, eye movement, etc.) and gives each parameter a score out of 5. A higher score equals a greater severity. The ASIS quantifies the annual rate of change in the CSS, calculated by dividing the CSS by the patient's age. In this regard, certain scores in these tests are characteristic of symptomatic neurodegenerative disease patients and evidence disease progression and/or severity.
An NPC patient's severity may be quantified by assigning a clinical severity score (CSS), which assesses various parameters of the disease and gives each parameter a score out of 5 (higher score=greater severity). See Yanjanin et al., “Linear Clinical Progression, Independent of Age of Onset, in Niemann-Pick Disease, Type C,” Am J Med Genet Part B 153B:132-140. In an untreated patient, one can typically predict how the CSS will change over time in an individual, as disease progression appears to be linear. For example, if Patient A moves from a CSS of 8 to a CSS of 12 between month 0 and month 12, it can be predicted that by month 36, the patient will have a CSS of 20. The annual severity increment score (ASIS) quantities the annual rate of change in the CSS, calculated by dividing the CSS of a patient by the patient's age. […] Each year, the patient would be expected to progress by 4 CSS points, such that at 4 years of age, the patient's CSS would be 16. If therapeutic intervention slowed or arrested disease progression, one would expect the patient to have a smaller ASIS score after such therapy than at baseline.
Ten NPC patients were administered acetyl-leucine at 4.5 g/day over long durations. ACSS was determined at baseline, and at various time points, for eye movement, ambulation, speech, swallow, fine motor skills, cognition, memory, and seizures. An overall CSS was calculated at baseline and at each such time point by adding the individual CSS values for each parameter (eye movement, ambulation, etc.).
The ASIS at baseline and each time point was calculated using each patient's CSS and age at the time of assessment. The overall ASIS for each patient at each time point is shown below in Table 35.

[2] = tested on: GM1 Gangliosidosis patient; assay: Case study, GM1 Gangliosidosis patient; format: in vivo, human; details: after one month
Excerpt: The patient in this case study was a person who was genetically diagnosed with GM1 Gangliosidosis and who was not able to stand or walk by themself, was very limited in daily activities (eating, washing, dressing themself was not possible), and had ocular movement disorder, anarthria, and distinct problems in cognitive function and concentration (neurological examination was not possible).
The patient was started on therapy with acetyl-leucine at a dose of 1.5 g per day for the first week, followed by a dose of 3 g per day for the second week onwards.

[3] = ALS Patient 1, after a further 20 days
[4] = one line per Patient, 4.5 g/day, Time Point 2, listed as acetyl-leucine
[5] = one line per Patient, 4.5 g/day, Time Point 3, listed as acetyl-leucine
[6] = one line per Patient, 4.5 g/day, Time Point 4, listed as acetyl-leucine

Which Overall symptoms (ALS patients; ALS Patient 1) does the source give for `CC(=O)NC(CC(C)C)C(=O)O` (racemic) [acetyl-DL-leucine] here?
The Overall symptoms was “improvement in symptoms”.

What about the “Speech (patient report)” value (ALS patients; ALS Patient 1, 5 gram per day, after 15 days of treatment) of the same compound?
The value was “significant improvement of speech”.

And the “Speech after stopping treatment” value (ALS patients; ALS Patient 1, about 7 days plus 1-2 additional weeks off treatment)?
Its value is “deterioration of speech”.

What about the “Paresis of the right foot-dorsiflexors and foot drop” value (ALS patients; [3]) of the same compound?
The value was “improved dramatically and were clinically hardly detectable”.

What about the “Sleep (patient report)” value (ALS patients; [3]) of the same compound?
Its value is “improvement in sleep”.

What about the “Speech (patient report)” value (ALS patients; [3]) of the same compound?
Its value is “further improvement of speech”.

And the “Symptomatology after resuming treatment” value (ALS patients; ALS Patient 1, second resumption)?
The value was “improved symptomatology, in particular speech”.

What about the Clinical observation (ALS patients; ALS Patient 2, 5 g per day, after approximately 2 months) of the same compound?
The Clinical observation was “progredient deterioration of the motor function of the left hand, but a discrete improvement of walking”.

And the Swallowing functions (ALS patients; ALS Patient 2, after approximately 2 months)?
Its Swallowing functions is “remained stable”.

And the Symptomatology (ALS patients; ALS Patient 3, 5 g per day, after one month)?
Its Symptomatology is “did not report improvement of symptomatology”.

And the Clinical observation (ALS patients; ALS Patient 4, 5 g per day, after about one month)?
The Clinical observation was “subjective improvement of dysphagia and less hypersalivation”.

And the Symptomatology after suspension (ALS patients; ALS Patient 4, 10 days after therapy was suspended)?
The Symptomatology after suspension was “worsening of symptomatology”.

What about the ALS-FRS score (ALS patients; ALS Patient 4, about 8 weeks after resuming continuous treatment, before treatment 44/48) of the same compound?
The ALS-FRS score was 43/48.

What about the “LysoTracker fluorescence relative to untreated disease fibroblasts” value [1] of the same compound?
Its value is “statistically significant reduction in LysoTracker fluorescence”.

And the CSS overall (NPC patients; one line per Patient I.D 1-10, 4.5 g/day, Time Point 2 (78-400 days, Table 25), listed as acetyl-leucine)?
Its CSS overall is 13 and 12 (3×) and 23 and 19 and 22 and 11 (2×) and 33.

And the CSS ambulation (NPC patients; [4])?
Its CSS ambulation is 2 (5×) and 1 (3×) and 4 and 5.

What about the CSS cognition (NPC patients; [4]) of the same compound?
The CSS cognition was 3 (5×) and 4 (3×) and 2 and 5.

What about the CSS eye movement (NPC patients; [4]) of the same compound?
The CSS eye movement was 2 and 3 (9×).

And the “CSS fine motor skills” value (NPC patients; [4])?
The value was 1 (6×) and 4 (2×) and 2 and 5.

What about the CSS memory (NPC patients; [4]) of the same compound?
Its CSS memory is 1 (5×) and 3 and 4 (3×) and 0.

And the CSS seizures (NPC patients; [4])?
The CSS seizures was 0 (9×) and 5.

And the CSS speech (NPC patients; [4])?
The CSS speech was 2 (4×) and 1 (6×).

And the CSS swallow (NPC patients; [4])?
The CSS swallow was 2 (5×) and 3 (3×) and 0 and 4.

What about the CSS overall (NPC patients; one line per Patient, 4.5 g/day, Time Point 3 (165-644 days), listed as acetyl-leucine) of the same compound?
The CSS overall was 10 (2×) and 12 and 21 (2×) and 19 and 11 (2×) and 33.

And the CSS ambulation (NPC patients; [5])?
The CSS ambulation was 1 (5×) and 2 (3×) and 5.

And the CSS cognition (NPC patients; [5])?
Its CSS cognition is 3 (5×) and 4 (3×) and 5.

And the CSS eye movement (NPC patients; [5])?
The CSS eye movement was 2 (2×) and 3 (7×).

And the “CSS fine motor skills” value (NPC patients; [5])?
The value was 1 (5×) and 4 (2×) and 2 and 5.

What about the CSS memory (NPC patients; [5]) of the same compound?
Its CSS memory is 0 (2×) and 1 (3×) and 3 (2×) and 4 (2×).

And the CSS seizures (NPC patients; [5])?
Its CSS seizures is 0 (8×) and 5.

What about the CSS speech (NPC patients; [5]) of the same compound?
Its CSS speech is 1 (6×) and 2 (3×).

What about the CSS swallow (NPC patients; [5]) of the same compound?
The CSS swallow was 2 (4×) and 3 (3×) and 0 and 4.

And the CSS eye movement (NPC patients; one line per Patient, 4.5 g/day, Time Point 4)?
Its CSS eye movement is 3.

And the CSS overall (NPC patients; one line per Patient, 4.5 g/day, Time Point 4 (297-414 days), listed as acetyl-leucine)?
The CSS overall was 12 and 21 and 33.

And the CSS ambulation (NPC patients; [6])?
Its CSS ambulation is 1 and 2 and 5.

And the CSS cognition (NPC patients; [6])?
The CSS cognition was 3 and 4 and 5.

What about the “CSS fine motor skills” value (NPC patients; [6]) of the same compound?
Its value is 1 and 4 and 5.

And the CSS memory (NPC patients; [6])?
The CSS memory was 1 and 3 and 4.

What about the CSS seizures (NPC patients; [6]) of the same compound?
Its CSS seizures is 0 (2×) and 5.

What about the CSS speech (NPC patients; [6]) of the same compound?
Its CSS speech is 1 and 2 (2×).

And the CSS swallow (NPC patients; [6])?
Its CSS swallow is 2 and 3 and 4.

What about the ASIS overall (NPC patients; one line per patient (order of Table 26), Time Point 2, listed as acetyl-leucine) of the same compound?
Its ASIS overall is 0.4767 and 0.4299 and 0.6073 and 0.5333 and 0.4452 and 0.7124 and 0.406 and 0.3769 and 1.905 and 0.5926.

And the ASIS overall (NPC patients; one line per patient, Time Point 3, listed as acetyl-leucine)?
Its ASIS overall is 0.3635 and 0.4232 and 0.5523 and 0.5299 and 0.4029 and 0.6656 and 0.3393 and 1.881 and 0.5325.

What about the ASIS overall (NPC patients; one line per patient, Time Point 4, listed as acetyl-leucine) of the same compound?
Its ASIS overall is 0.4162 and 0.5454 and 1.853.

And the “ASIS during treatment relative to ASIS at baseline” value (NPC patients; ten NPC patients, 4.5 g/day)?
Its value is “all ten patients showed a reduction in ASIS”.

And the “Overall change in CSS over the course of the experiment” value (NPC patients; ten NPC patients, 4.5 g/day)?
Its value is “none of the ten patients showed an overall increase in CSS”.

What about the SARA ([2]; 3 g per day, baseline 35/40) of the same compound?
Its SARA is 35/40.

And the Clinical observation [2]?
Its Clinical observation is “stable general condition, increased gait (more fluent), and stable stance in natural position”.

What about the mRDS ([2]; baseline 15) of the same compound?
The mRDS was 16.

And the EQ-5D-5L visual scale ([2]; baseline 50)?
The EQ-5D-5L visual scale was 60.
